Test results reported in patent US7423030B2, “1-amino-phthalazine derivatives, the preparation and the therapeutic use thereof” (Sanofi-Aventis, priority 2004, dated 2008).
Counter-ions that a name gives are not always drawn.

Target: MCH1 receptor (UniProt P97639)
Experiment: Displacement of [125I]-Tyr-S36057 binding to MCH1 receptors on brain membrane preparations
Settings: rat and/or mouse brain membranes, 50 pM [125I]-Tyr-S36057, room temperature, 30 minutes; read-out: IC50 (concentration that inhibits 50% of the specific binding)
Protocol: The compounds according to the invention underwent pharmacological tests. Their affinity towards the receptor 1 of Melamin-Concentrating Hormone (MCH), MCH1 was determined by these means.
The tests consisted in measuring the in vitro activity of the compounds of the invention on the MCH1 receptors of MCH.
The measurement of the affinity of the compounds of the invention for the MCH receptors was performed by studying the displacement of the binding of a radiolabelled derivative of MCH to the MCH1 receptors. This study was performed on rat and/or mouse brain membrane preparations according to the protocol described below.
In anticipation of the binding studies, the brains are diluted in HEPES buffer 25 mM (pH: 7.4) containing MgCl2 5 mM, CaCl2 1 mM, homogenized using a Polytron blender for 3 times 20 seconds (speed 25), and are then ultracentrifuged at 22 000 rpm and at +4° C. for 30 minutes. […]
The incubation is performed at room temperature for 30 minutes, and then stopped by rapid addition of ice-cold HEPES buffer 25 mM (pH: 7.4) supplemented with 0.2% bovine serum albumin, and by filtration through GF/B glass fibre filters preincubated for 2 hours in an aqueous 0.1% polyethyleneimine solution. The radioactivity retained on the filters is measured using a Gamma scintillation counter. The non-specific binding is determined in the presence of 1 μM of non-radiolabelled S36057. […]

| SMILES | IC50 [nM] |
| --- | --- |
| COc1ccc(-c2nnc(NC3CCN(Cc4ccccc4)CC3)c3cc(OC)cc(OC)c23)cc1 [Example 2, N-(1-benzylpiperidin-4-yl)-5,7-dimethoxy-4-(4-methoxyphenyl)phthalazin-1-amine] | 72 |
| c1ccc(-c2ccc3c(-c4ccccc4)nnc(NC4CCN(Cc5ccc6ccccc6c5)CC4)c3c2)cc1 [Example 42, 4,7-diphenyl-N-[1-(naphthalen-2-ylmethyl)piperidin-4-yl]-phthalazin-1-amine dihydrochloride] | 360 |

Tested on: not given
Experiment: not given
Settings: not given

| SMILES | melting point [°C] |
| --- | --- |
| COCc1ccc(-c2nnc(NC3CCN(Cc4ccc5ccccc5c4)CC3)c3cc(OC)ccc23)cc1 (as salt: salt) (hydrate or solvate) [Compound 88, 7-Methoxy-4-(4-methoxymethylphenyl)-N-[1-(naphthalen-2-ylmethyl)piperidin-4-yl]phthalazin-1-amine] | 155 |
| COc1ccc(OC)c(-c2nnc(NC3CCN(Cc4ccc5ncsc5c4)CC3)c3cc(OC)ccc23)c1 (as salt: salt) (hydrate or solvate) [Compound 135, N-[1-(1,3-benzothiazol-6-ylmethyl)piperidin-4-yl]-4-(2,5-dimethoxyphenyl)-7-methoxyphthalazin-1-amine] | 193 |
| COc1ccc(-c2nnc(NC3CCN(Cc4ccc(Cl)cc4)CC3)c3cc(OC)ccc23)cc1.Cl.Cl (hydrate or solvate) | 277 |
| COc1ccc2c(-c3ccc(-c4ccccc4)cc3)nnc(NC3CCN(Cc4ccc5ccccc5c4)CC3)c2c1.Cl.Cl (hydrate or solvate) | 292 |
| COc1ccc(-c2nnc(NC3CCN(Cc4ccc(CO)cc4)CC3)c3cc(OC)ccc23)cc1.Cl.Cl (hydrate or solvate) | 294 |
| COc1ccc(OC)c(-c2nnc(NC3CCN(Cc4ccc5occc5c4)CC3)c3cc(OC)ccc23)c1.Cl.Cl (hydrate or solvate) | 250 |
| COc1ccc(OC)c(-c2nnc(NC3CCN(Cc4ccc5c(c4)OCO5)CC3)c3cc(OC)ccc23)c1.Cl.Cl (hydrate or solvate) | 272 |
| COc1ccc(-c2nnc(NC3CCN(Cc4ccc5oc(=O)ccc5c4)CC3)c3cc(OC)ccc23)cc1.Cl.Cl (hydrate or solvate) | 293 |
| COc1ccc(CN2CCC(Nc3nnc(-c4ccc(OC)cc4)c4ccc(OC)cc34)CC2)cc1.Cl.Cl (hydrate or solvate) | 216 |
| Cl.Cl.c1ccc(-c2ccc3c(-c4ccccc4)nnc(NC4CCN(Cc5ccc6ccccc6c5)CC4)c3c2)cc1 (hydrate or solvate) | 224 |
| COc1ccc2c(-c3ccc(Br)cc3)nnc(NC3CCN(Cc4ccc5ccccc5c4)CC3)c2c1.Cl.Cl (hydrate or solvate) | 246 |
| COc1ccc(-c2nnc(NC3CCN(Cc4ccc5ccccc5c4)CC3)c3cc(OC)cc(OC)c23)cc1.Cl.Cl (hydrate or solvate) | 212 |
| COc1ccc(-c2nnc(N[C@@H]3CCN(Cc4ccc5ccccc5c4)C3)c3cc(OC)ccc23)cc1.Cl.Cl (hydrate or solvate) | 254 |
| COc1ccc(-c2nnc(NC3CCN(Cc4ccccc4)CC3)c3cc(OC)cc(OC)c23)cc1 [Compound 11, N-(1-benzylpiperidin-4-yl)-5,7-dimethoxy-4-(4-methoxyphenyl)phthalazin-1-amine] | 168 |
| COc1ccc2c(C)nnc(NC3CCN(Cc4ccc5ccccc5c4)CC3)c2c1 [Compound 95, 7-Methoxy-4-methyl-N-[1-(naphthalen-2-ylmethyl)piperidin-4-yl]phthalazin-1-amine] | 188 |
| COc1ccc(-c2nnc(NC3CCN(Cc4ccc5[nH]cnc5c4)CC3)c3cc(OC)ccc23)cc1 [Compound 138, N-[1-(1H-benzimidazol-5-ylmethyl)piperidin-4-yl]-7-methoxy-4-(4-methoxyphenyl)phthalazin-1-amine] | 267 |
| COc1ccc2c(CO)nnc(NC3CCN(Cc4ccc5ccccc5c4)CC3)c2c1 [Example 48, 4-Hydroxymethyl-7-methoxy-N-[1-(naphthalen-2-ylmethyl)piperidin-4-yl]phthalazin-1-amine] | 102 |

Next, values leading:

| melting point [°C] | SMILES |
| --- | --- |
| 281 | COc1ccc(-c2nnc(NC3CCN(Cc4ccc5[nH]ccc5c4)CC3)c3cc(OC)ccc23)cc1 (as salt: salt) (hydrate or solvate) [Compound 87, N-[1-(1H-indol-5-ylmethyl)piperidin-4-yl]-7-methoxy-4-(4-methoxyphenyl)phthalazin-1-amine] |
| 270 | COc1ccc(-c2nnc(NC3CCN(Cc4ccc(OC)c(C)c4)CC3)c3cc(OC)ccc23)cc1 (as salt: salt) (hydrate or solvate) [Compound 89, 7-methoxy-N-[1-(4-methoxy-3-methylbenzyl)piperidin-4-yl]-4-(4-methoxyphenyl)phthalazin-1-amine] |
| 249 | COc1ccc(-c2nnc(NC3CCN(Cc4ccc5ncccc5c4)CC3)c3cc(OC)ccc23)cc1 (as salt: salt) (hydrate or solvate) [Compound 99, 7-methoxy-4-(4-methoxyphenyl)-N-[1-(quinolin-6-ylmethyl)piperidin-4-yl]phthalazin-1-amine] |
| 161 | COc1ccc(-c2nnc(NC3CCN(Cc4ccc5c(ccn5C)c4)CC3)c3cc(OC)ccc23)cc1 (as salt: salt) (hydrate or solvate) [Compound 100, 7-methoxy-4-(4-methoxyphenyl)-N-{1-[(1-methyl-1H-indol-5-yl)methyl]piperidin-4-yl}phthalazin-1-amine] |
| 278 | COc1ccc(-c2nnc(NC3CCN(Cc4ccc5cc[nH]c5c4)CC3)c3cc(OC)ccc23)cc1 (as salt: salt) (hydrate or solvate) [Compound 129, N-[1-(1H-indol-6-ylmethyl)piperidin-4-yl]-7-methoxy-4-(4-methoxyphenyl)phthalazin-1-amine] |
| 134 | COc1ccc(-c2nnc(NC3CCN(Cc4ccc5ccccc5c4)CC3)c3ccc(C)cc23)cc1 (as salt: salt) (hydrate or solvate) [Compound 142, 4-(4-methoxyphenyl)-6-methyl-N-[1-(naphthalen-2-ylmethyl)piperidin-4-yl]phthalazin-1-amine] |
| 228 | COc1ccc(-c2nnc(NC3CCN(Cc4ccc5ccccc5c4)CC3)c3cc(OC)ccc23)c(OC)c1.Cl.Cl (hydrate or solvate) |
| 240 | COc1cc(OC)cc(-c2nnc(NC3CCN(Cc4ccc5ccccc5c4)CC3)c3cc(OC)ccc23)c1.Cl.Cl (hydrate or solvate) |
| 225 | COc1ccc2c(-c3cccnc3)nnc(NC3CCN(Cc4ccc5ccccc5c4)CC3)c2c1.Cl.Cl.Cl (hydrate or solvate) |
| 284 | COc1ccc(-c2nnc(NC3CCN(Cc4ccc(CN)cc4)CC3)c3cc(OC)ccc23)cc1.Cl.Cl.Cl (hydrate or solvate) |
| 255 | COc1ccc(-c2nnc(NC3CCN(Cc4ccc(NC(C)=O)cc4)CC3)c3cc(OC)ccc23)cc1.Cl.Cl (hydrate or solvate) |
| 210 | COc1ccc2c(-c3ccc(C)c(C)c3)nnc(NC3CCN(Cc4ccc5ccccc5c4)CC3)c2c1.Cl.Cl (hydrate or solvate) |
| 293 | COc1ccc(-c2nnc(NC3CCN(Cc4ccc(NC=O)cc4)CC3)c3cc(OC)ccc23)cc1.Cl.Cl (hydrate or solvate) |
| 245 | CCc1ccc(CN2CCC(Nc3nnc(-c4ccc(OC)cc4)c4ccc(OC)cc34)CC2)cc1.Cl.Cl (hydrate or solvate) |
| 239 | COc1ccc2c(COc3ccccc3)nnc(NC3CCN(Cc4ccc5ccccc5c4)CC3)c2c1.Cl.Cl (hydrate or solvate) |
| 208 | COc1ccc(-c2nnc(NC3CCN(Cc4ccc(C(C)O)cc4)CC3)c3cc(OC)ccc23)cc1.Cl.Cl (centres unmarked) (hydrate or solvate) |
| 222 | COc1ccc(-c2nnc(NC3CCN(Cc4ccc(CN5CCCC5)cc4)CC3)c3cc(OC)ccc23)cc1.Cl.Cl.Cl (hydrate or solvate) |
| 230 | COc1ccc(-c2nnc(NC3CCN(Cc4ccc5ccccc5c4)CC3)c3cc(Cl)ccc23)cc1.Cl.Cl (hydrate or solvate) |
| 284 | COCc1nnc(NC2CCN(Cc3ccc4c(c3)OCO4)CC2)c2cc(OC)ccc12.Cl.Cl (hydrate or solvate) |
| 218 | COc1ccc(-c2nnc(NC3CCN(Cc4ccc(CN(C)C)cc4)CC3)c3cc(OC)ccc23)cc1.Cl.Cl.Cl (hydrate or solvate) |
| 199 | COc1cc(-c2ccccc2)c2cnnc(NC3CCN(Cc4ccc5ccccc5c4)CC3)c2c1.Cl.Cl (hydrate or solvate) |
| 235 | COc1ccc(-c2nnc(NC3CCN(Cc4ccc5c(c4)OCO5)CC3)c3cc(OC)ccc23)cc1.Cl.Cl (hydrate or solvate) |
| 176 | COCc1nnc(NC2CCN(Cc3ccc4ccccc4c3)CC2)c2cc(OC)ccc12.Cl (hydrate or solvate) |
| 210 | COc1ccc(-c2nnc(NC3CCN(C/C=C/c4ccccc4)CC3)c3cc(OC)ccc23)cc1.Cl.Cl (hydrate or solvate) |
| 240 | COc1ccc(OC)c(-c2nnc(NC3CCN(Cc4ccc5ccccc5c4)CC3)c3cc(OC)ccc23)c1.Cl.Cl (hydrate or solvate) |
| 163 | COc1cc(OC)c2c(Cc3ccccc3)nnc(NC3CCN(Cc4ccc5ccccc5c4)CC3)c2c1 [Compound 22, 4-Benzyl-5,7-dimethoxy-N-[1-(naphthalen-2-ylmethyl)piperidin-4-yl]phthalazin-1-amine] |
| 210 | COc1ccc(-c2nnc(NC3CCN(Cc4ccc(C)c(F)c4)CC3)c3cc(OC)ccc23)cc1 [Compound 74, N-[1-(3-fluoro-4-methylbenzyl)piperidin-4-yl]-7-methoxy-4-(4-methoxyphenyl)phthalazin-1-amine] |
| 207 | Fc1ccc(-c2nnc(NC3CCN(Cc4ccc5ccccc5c4)CC3)c3cc(F)ccc23)cc1 [Compound 106, 7-Fluoro-4-(4-fluorophenyl)-N-[1-(naphthalen-2-ylmethyl)piperidin-4-yl]phthalazin-1-amine] |
